# Experiments:
# mouse TAAR1 = biological target: mouse TAAR1; parameters: method as in Bradaia et al., 2009; settings: ref Bradaia et al., 2009; read-out: affinity for the mouse TAAR1; cited from earlier work
# VTA dopamine neurons = assay: Electrophysiology: spontaneous firing of VTA dopamine neurons in slices; type: cell-based, C57Bl/6J mice; settings: 10 nM, bath applied 5 min; positive control
# Method: All electrophysiological recordings were performed in slice preparations from C57Bl/6J mice (P21-P30). Briefly, mice were anaesthetized with isoflurane and transcardially perfused with an ice-cold sucrose solution containing (in mM): 50 sucrose, 26.2 NaHCO3, 1.25 glucose, 4.9 MgCl2, 3 kynurenic acid, 0.1 CaCl2, and 1.32 ascorbic acid in bicarbonate-buffered solution (aCSF, described below). Mice were then decapitated and brains were extracted. […] Cells were visualized on an upright microscope using “Dodt-type” gradient contrast infrared optics ([Dodt et al., 2002]) and whole-cell recordings were made using a MultiClamp 700B amplifier (Axon Instruments, Union City, CA, United States). Recording electrodes (3–5 MΩ) were filled with (in mM): 136 potassium-D-gluconate, 4 MgCl2, 1.1 HEPES, 5, EGTA, 10 sodium creatine phosphate, 3.4 Mg-ATP, and 0.1 Na2GTP. […] Spontaneous firing activity was recorded in current-clamp mode. […] Firing data for all neurons was analyzed with the MiniAnalysis program (Synaptosoft) using the same criteria. Drug-induced changes in firing are expressed as a percentage of baseline. Drug effects were calculated by comparing the response during the baseline/pre-drug period to the response 5 min after onset of drug administration. […] We therefore assessed the effects of compound 22 on firing rate of dopamine neurons. […]
# human TAAR1 receptor = tested on: human TAAR1 receptor; parameters: method as in Bradaia et al., 2009; settings: ref Bradaia et al., 2009; cited from earlier work
smiles,measurement,setting,value
CCOc1cccc(NC(=O)c2ccc(N3CCCC3)c(C(F)(F)F)c2)c1 [EPPTB],Ki,mouse TAAR1,0.9 nM
same,increase in firing of dopamine neurons,VTA dopamine neurons,74%
same,binding to the human TAAR1 receptor,human TAAR1 receptor,does not bind

# — paper PMC6131539, “Behavioral Effects of a Potential Novel TAAR1 Antagonist” (Frontiers in Pharmacology, 2018)
